{"source": "patent US20230072528A1", "about": "“METHODS FOR DISCONTINUING A TREATMENT WITH A TYROSINE KINASE INHIBITOR (TKI)” (INSERM (Institut National de la Santé et de la Recherche …, priority 2020, published 2023)", "system": "innate CD8(+) T-cells", "assay": "Ex vivo flow cytometry of peripheral blood CD8(+) T-cell subsets in CML patients under therapy (DASA-PEGIFN phase II trial)", "set-up": "species or system human", "settings": "for innate CD8(+) T-cell frequency (mean±SD): 3 months after initiation of therapy", "description": "The phase II DASA-PEGIFN clinical trial was registered with EudraCT number 2012-003389-42. Briefly, newly diagnosed Ph^+ CP-CML patients were treated first-line with dasatinib at 100 mg/day. At 3 months, they were assigned to receive Peg-IFNα2b associated to dasatinib when platelets>100×109/L, neutrophils>1.5×10^9/L and lymphocytes<4.0×109/L counts were achieved. Venous blood was collected on heparin at several time points: diagnosis, 3, 6, 12 and 24 months after initiation of treatment Among the 61 patients receiving Dasatinib+Peg-IFNα2b therapy, we analysed samples from 40 patients. Two out of them were excluded for technical issues. See Table 1 for detailed patient's characteristics. Patients response to treatment were classified conforming to 2013 ELN criteria. Major molecular response was defined as a ratio of BCR-ABL1/ABL1≤0.1% on the international scale (IS). A ratio of BCR-ABL1/ABL1IS≤0.01% defined a molecular response of 4-log reduction or in our work a deep molecular response (DMR). All patients gave informed consent in accordance with the Declaration of Helsinki for participation in the study, which was approved by the scientific committee of the INSERM CIC-1402 (Poitiers, France) and Comité Protection Personnes Recherche Biomédicale Région Poitou Charentes (protocol number 12.10.31).\nPeripheral blood mononuclear cells (PBMC) were isolated from blood samples by density gradient centrifugation (Histopaque®-1077, Sigma-Aldrich, St Louis, Mo., US), resuspended in 90% Fetal Bovine Serum (10270106, Gibco®, Thermo Fisher Scientific, Waltham, Mass., US) with 10% DMSO (D2650, Sigma-Aldrich), and cryopreserved at −80° C. or in liquid nitrogen until use.\nPhenotypic analysis of cells from HD and CML patients was performed by ex vivo flow cytometry. All monoclonal antibodies (mAbs) used in this study are listed in Supplementary Table 2. The expression of the different markers was assessed by staining PBMC with appropriate combinations of mAbs. panKIR/NKG2A referred to staining with the mix of the three following antibodies from Miltenyi Biotec (Bergisch Gladbach, Germany) KIR2D, KIR3DL1/KIR3DL2 (CD158e/k) and NKG2A (CD159a). Dead cells were excluded using the Live/Dead® Fixable NearIR Dead Cell Stain kit (L10119, Invitrogen™, Thermo Fisher Scientific). For intranuclear Eomes staining, cells were permeabilized with anti-human Foxp3 staining kit according to the manufacturer's protocol (73-5776-40, eBioscience™, Thermo Fisher Scientific). Flow data were acquired on a FACSVerse flow cytometer (Becton, Dickinson & Compagny, Franklin Lakes, N.J., US) with FACSuite™ software (Becton, Dickinson & Compagny) and analyzed using FlowJo™ v10 (Becton, Dickinson & Compagny). Results are expressed as either percent positive cells or as mean fluorescence intensity (MFI).\nResults are shown as box and whiskers with 5 percentile, median and 95 percentile unless indicated otherwise. All statistical data analyses were performed using GraphPad Prism v7.0 (GraphPad software, Inc). Wilcoxon and Mann-Whitney two-tailed test were used for paired and unpaired data analysis, respectively. A p value<0.05 was considered significant. Cumulative response rates were calculated using the cumulative incidence approach and Mantle-Cox method. The cut-off point for innate CD8(+) T-cells was optimized by receiver operating characteristics (ROC) curves and the Youden index using the logarithm of innate CD8(+) T-cell frequency at diagnosis and after 3 months of therapy. Patients were dichotomized according to their low or high percentage of innate CD8(+) T-cells. Data are presented as Kaplan-Meier curves.", "key": {"[1]": {"settings": "after 3 months of therapy as compared to diagnosis"}}, "data": [{"compound": "Cc1nc(Nc2ncc(C(=O)Nc3c(C)cccc3Cl)s2)cc(N2CCN(CCO)CC2)n1", "note": "[dasatinib, N-(2-chloro-6-methylphenyl)-2-[[6-[4-(2-hydroxyethyl)-1-piperazinyl]-2-methyl-4-pyrimidinyl]amino]-5-thiazole-carboxamide monohydrate]", "values": [{"measurement": "innate CD8(+) T-cell frequency (mean±SD)", "setting": "M12-DMR group (DMR achieved at 12 months)", "result": "9.14±6.54", "unit": "%"}, {"measurement": "innate CD8(+) T-cell frequency (mean±SD)", "setting": "M12-noDMR group (no DMR at 12 months)", "result": "3.48±2.43", "unit": "%"}, {"measurement": "frequency of innate CD8(+) T-cells (mean±SD)", "setting": "CML patients, whole group, after 3 months of therapy, among total CD8+TCR-αβ+ cells, 3.78±3.39% at diagnosis", "result": "5.98±5.43", "unit": "%"}, {"measurement": "Eomes and CD49d expression levels of innate CD8(+) T-cells", "setting": "[1]", "result": "significant increase"}, {"measurement": "conventional-memory CD8(+) T-cell frequency", "setting": "[1]", "result": "concomitantly increased"}, {"measurement": "naive CD8(+) T-cell frequency", "setting": "[1]", "result": "decreased"}]}]}
